17 molecules from patent publication US11154563B2, “Immunoproteasome inhibitors” (Principia Biopharma Inc., priority 2017, dated 2021) can be followed below.

Each structure is given as a SMILES string. Bounds are passed on as bounds.

Assay [1] has as its target constitutive proteasome β5c unit (Homo sapiens, UniProt P20618+P28074). Nature of the assay: Caliper-based proteasome enzymatic activity assay, β5c. To be noted: human recombinant constitutive proteasome 0.3 nM, FAM-peptide substrate 1 μM, 3 h at rt; read-out: β5c subunit IC50. Format: biochemical. As for the experimental part:
(§1) A Caliper-based proteasome assay (Caliper Life Sciences, Hopkinton, Mass.) was used to measure inhibition of the immunoproteasome LMP7/B5i subunit, the immunoproteasome LPM2/β1i subunit, and the constitutive proteasome β5c unit for a compound of Formula (I). For LMP7 and β5c, serial dilutions of test compounds were incubated with either human recombinant immunoprotcasome or constitutive proteasome (0.3 nM enzyme) and a carboxyfluorescein (FAM)-labeled peptide substrate FAM-TYETFKSIMKKSPF-NH2 (1 μM) at it for 3 h. The reaction was then terminated with a buffer containing the known proteasome inhibitor carfilzomib at a concentration of 5 uM. For LMP2, serial dilutions of test compounds were incubated with human recombinant immunoproteasome proteasome (0.3 nM enzyme) and a carboxyfluorescein (FAM)-labeled peptide substrate FAM-[…]-NH2 (1 μM) at rt for 2 h. The reaction was then terminated with a buffer containing the known proteasome inhibitor ixazomib at a concentration of 6.7 uM. The reaction buffer was 20 mM Hepes pH 7.4, 0.01% bovine serum albumin, 0.015% SDS, 0.5 mM EDTA, 1%0/DMSO. The peptide cleavage reaction product was quantified on a Caliper LabChip 3000. Percent inhibition was calculated for each compound dilution and the concentration that produced 50% inhibition was calculated. This value is presented as the IC50.

For assay [2], the target named is immunoproteasome LMP7/B5i subunit (Homo sapiens, UniProt P20618+P28062). Description: Caliper-based proteasome enzymatic activity assay, LMP7. Format: biochemical. The note with it: human recombinant immunoproteasome 0.3 nM, FAM-peptide substrate 1 μM, 3 h at rt. Here is the method:
as §1

Regarding `CC(C)(C)/C=C(\C#N)C(=O)N1CC(F)(F)C[C@@H]1COC(=O)N[C@@H](Cc1ccccc1)B(O)O` [Example 61, ((R)-1-(((((R)-1-((E)-2-cyano-4,4-dimethylpent-2-enoyl)-4,4-difluoropyrrolidin-2-yl)methoxy)carbonyl)amino)-2-phenylethyl)boronic acid], the IC50 came out at 1490 nM in assay [1] and 1.4 nM in assay [2].

In the case of `CC(C)(C=C(C#N)C(=O)N1CCOC[C@@H]1COC(=O)N[C@@H](Cc1ccccc1)B(O)O)N1CCC(F)(F)C1` [Example 94, ((R)-1-(((((R)-4-(2-cyano-4-(3,3-difluoropyrrolidin-1-yl)-4-methylpent-2-enoyl)morpholin-3-yl)methoxy)carbonyl)amino)-2-phenylethyl)boronic acid], the IC50 in assay [1] came out at 1760 nM; in assay [2], 2 nM.

`CC(C)(C=C(C#N)C(=O)N1CCCCC[C@@H]1COC(=O)N[C@@H](Cc1coc2ccccc12)B(O)O)N1CCC(F)(F)C1` [Example 72, ((R)-2-(benzofuran-3-yl)-1-(((((R)-1-(2-cyano-4-(3,3-difluoropyrrolidin-1-yl)-4-methylpent-2-enoyl)azepan-2-yl)methoxy)carbonyl)amino)ethyl)boronic acid]: the IC50 stood at 225 nM in assay [1] and 2.5 nM in assay [2].

Turning to `C=CC(=O)N1C[C@@H]2C[C@@H]2[C@@H]1COC(=O)N[C@@H](Cc1ccccc1)B(O)O` [Example 99, ((R)-1-(((((1S,2R,5R)-3-acryloyl-3-azabicyclo[3.1.0]hexan-2-yl)methoxy)carbonyl)amino)-2-phenylethyl)boronic acid], the results for the IC50 in assay [1] and in assay [2] were 1990 nM and 68 nM, respectively.

In the case of `CC(C)(C=C(C#N)C(=O)N1CCC[C@]1(C)COC(=O)N[C@@H](Cc1coc2ccccc12)B(O)O)N1CCOCC1` [Example 71, ((R)-2-(benzofuran-3-1)-1-(((((R)-1-(2-cyano-4-methyl-4-morpholinopent-2-enoyl)-2-methylpyrrolidin-2-yl)methoxy)carbonyl)amino)ethyl)boronic acid], the IC50 was 1660 nM in assay [1] and 4.5 nM in assay [2].

For the molecule `CC(C)(C=C(C#N)C(=O)N1CCCC[C@@H]1COC(=O)N[C@@H](Cc1ccccc1)B(O)O)N1CCN(C2COC2)CC1` [Example 126, ((R)-1-(((((R)-1-(2-cyano-4-methyl-4-(4-(oxetan-3-yl)piperazin-1-yl)pent-2-enoyl)piperidin-2-yl)methoxy)carbonyl)amino)-2-phenylethyl)boronic acid], the IC50 in assay [1] was more than 5000 nM; in assay [2], 21 nM.

Regarding `CC(C)(C=C(C#N)C(=O)N1CCOC[C@@H]1COC(=O)N[C@@H](Cc1coc2ccccc12)B(O)O)N1CCC(F)(F)C1` [Example 65, ((R)-2-(benzofuran-3-yl)-1-(((((R)-4-(2-cyano-4-(3,3-difluoropyrrolidin-1-yl)-4-methylpent-2-enoyl)morpholin-3-yl)methoxy)carbonyl)amino)ethyl)boronic acid], the half-inhibitory concentration (IC50) worked out at 60 nM in assay [1] and 2.3 nM in assay [2].

With `CC(C)(C=C(C#N)C(=O)N1C[C@@H]2C[C@@H]2[C@@H]1COC(=O)N[C@@H](CCc1ccccc1)B(O)O)N1CCC(F)(F)C1` [Example 104, ((R)-1-(((((1S,2R,5R)-3-(2-cyano-4-(3,3-difluoropyrrolidin-1-yl)-4-methylpent-2-enoyl)-3-azabicyclo[3.1.0]hexan-2-yl)methoxy)carbonyl)amino)-3-phenylpropyl)boronic acid], the IC50 is more than 5000 nM in assay [1] and 1.4 nM in assay [2].

For the molecule `COc1ccc(C[C@H](NC(=O)OC[C@H]2CCCCN2C(=O)C(C#N)=CC(C)(C)N2CCC(F)(F)C2)B(O)O)cc1` [Example 78, ((R)-1-(((((R)-1-(2-cyano-4-(3,3-difluoropyrrolidin-1-yl)-4-methylpent-2-enoyl)piperidin-2-yl)methoxy)carbonyl)amino)-2-(4-methoxyphenyl)ethyl)boronic acid], the IC50 in assay [1] was 1270 nM; in assay [2], 4.8 nM.

On to `CC(C)(C=C(C#N)C(=O)N1CCCC[C@@H]1COC(=O)N[C@@H](Cc1coc2ccccc12)B(O)O)N1CCC(F)(F)C1` [Example 47], for which the 50% inhibitory concentration (IC50) in assay [1] is 128 nM; in assay [2] it was 1.1 nM.

Regarding `CC(C)(C=C(C#N)C(=O)N1CCCC[C@@H]1COC(=O)N[C@@H](Cc1ccc(Cl)cc1)B(O)O)N1CCC(F)(F)C1` [Example 79, ((R)-2-(4-chlorophenyl)-1-(((((R)-1-(2-cyano-4-(3,3-difluoropyrrolidin-1-yl)-4-methylpent-2-enoyl)piperidin-2-yl)methoxy)carbonyl)amino)ethyl)boronic acid], the IC50 in assay [1] was found to be 578 nM; in assay [2], 2 nM.

With `CC(C)(C)C=C(C#N)C(=O)N1CCCC[C@@H]1COC(=O)N[C@@H](CCc1ccccc1)B(O)O` [Example 50, ((R)-1-(((((R)-1-(2-cyano-4,4-dimethylpent-2-enoyl)piperidin-2-yl)methoxy)carbonyl)amino)-3-phenylpropyl)boronic acid], the IC50 in assay [1] was more than 5000 nM; in assay [2] it was 9.8 nM.

Consider `CC1(C=C(C#N)C(=O)N2C[C@@H]3C[C@@H]3[C@@H]2COC(=O)N[C@@H](Cc2ccc(F)cc2)B(O)O)CCOCC1` [Example 119, ((R)-1-(((((1S,2R,5R)-3-(2-cyano-3-(4-methyltetrahydro-2H-pyran-4-yl)acryloyl)-3-azabicyclo[3.1.0]hexan-2-yl)methoxy)carbonyl)amino)-2-(4-fluorophenyl)ethyl)boronic acid], for which the IC50 in assay [1] and in assay [2] was more than 5000 nM each time.

Regarding `CC(C)(C=C(C#N)C(=O)N1CCCC[C@]1(C)COC(=O)N[C@@H](Cc1ccccc1)B(O)O)N1CCC(F)(F)C1` [Example 129, ((R)-1-(((((R)-1-(2-cyano-4-(3,3-difluoropyrrolidin-1-yl)-4-methylpent-2-enoyl)-2-methylpiperidin-2-yl)methoxy)carbonyl)amino)-2-phenylethyl)boronic acid], the IC50 in assay [1] turned out to be 1940 nM; in assay [2] it was 2 nM.

As for `Cc1ccc(C[C@H](NC(=O)OC[C@@H]2CCCCCN2C(=O)C(C#N)=CC(C)(C)N2CCC(F)(F)C2)B(O)O)cc1` [Example 81, ((R)-1-(((((S)-1-(2-cyano-4-(3,3-difluoropyrrolidin-1-yl)-4-methylpent-2-enoyl)azepan-2-yl)methoxy)carbonyl)amino)-2-(p-tolyl)ethyl)boronic acid], the IC50 is 3840 nM in assay [1] and 4.4 nM in assay [2].

For the molecule `C=CC(=O)N1C[C@@H]2C[C@@H]2[C@@H]1COC(=O)N[C@@H](Cc1ccc(F)cc1)B(O)O` [Example 109, ((R)-1-(((((1S,2R,5R)-3-acryloyl-3-azabicyclo[3.1.0]hexan-2-yl)methoxy)carbonyl)amino)-2-(4-fluorophenyl)ethyl)boronic acid], the IC50 in assay [1] was 3320 nM; in assay [2] it was 6.4 nM.

`CN(C)C/C=C/C(=O)N1C[C@@H]2C[C@@H]2[C@@H]1COC(=O)N[C@@H](Cc1coc2ccccc12)B(O)O` [Example 87, ((R)-2-(benzofuran-3-yl)-1-(((((1S,2R,5R)-3-((E)-4-(dimethylamino)but-2-enoyl)-3-azabicyclo[3.1.0]hexan-2-yl)methoxy)carbonyl)amino)ethyl)boronic acid]: the results for the IC50 in assay [1] and in assay [2] were 1010 nM and 13 nM, respectively.

The term IC50 denotes the concentration that gives 50% inhibition.
